Measurements published in article PMC10244669, “Virtual screening–based discovery of AI-2 quorum sensing inhibitors that interact with an allosteric hydrophobic site of LsrK and their functional evaluation” (Frontiers in Chemistry, 2023).
“Also recorded” adds a separate entry of the source. Where two headings read alike, the source gives them in different places.

What was measured:
[1] = test system: WHQ02 (E. coli BL21 ΔTolC pWHQ01); assay: Growth inhibition of the reporter strain (OD600); assay type: cell-based; details: 100 to 3.13 μM
Protocol: (§1) WHQ02 cultured overnight were diluted 1:100 in fresh LB supplemented with 100 μg/mL ampicillin and grown at 30°C and until the logarithmic phase (OD600 = 0.4–0.6). The bacterial culture was centrifuged at 4,000 × g for 5 min, and the pellet was resuspended in fresh LB medium to prepare a suspension of 2 McFarland standard and added to the 96-well plate. In the experimental group, 74 compounds (final concentrations ranging from 100 to 3.125 μM) were added to reach a total volume of 100 µL. In addition, 100 µL LB medium with an equal volume of DMSO (negative control) or 100 µL LB supplemented with 2% glucose and the same volume of DMSO (positive control) were added. Bacteria was cultured at 37°C with shaking for 3 h. The […] of WHQ02 is directly regulated by the lsr promoter, reflecting the strength of QS. The luminescence and OD600 were measured using an Enspire 2300 microplate reader (Perkin Elmer). To further study the effect of compounds on bacterial growth, overnight cultured WHQ02 was diluted 1:1,000 with LB medium and added to 96 well plate. Then, the compounds were added to a 96-well plate (final concentration: 100 µM) and diluted in a gradient. The same volume of DMSO was added to the control group. The plates were incubated at 37°C for 18 h. OD600 values were recorded using an Enspire 2300 microplate reader. The experiment was performed in triplicate.
The 12 hits showing >60% LsrK inhibition were tested for QS inhibition using cell-based AI-2-mediated QS interference assay, as previously described [Baba et al., 2006]). To ensure that lower luminescence was the result of QS inhibition not the chemical toxicity or antibacterial activity, strain growth inhibition was assessed concurrently. […] Therefore, a parallel experiment to test the MIC of compounds at a low bacterial density was conducted, indirectly reflecting the potential growth inhibition to avoid false positives.

LsrK [2] = biological target: T1, LsrK (Salmonella typhimurium, UniProt Q8ZKQ6); assay: LsrK inhibition assay (Kinase-Glo luminescence); assay type: biochemical; details: for IC50 / inhibition at 200 µM / Inhibition (%): mean ± SD, n = 3; for inhibition at 200 µM: Table 1, hits at 200 μM with 100 μM ATP; for type of LsrK inhibition: from IC50 values at 50, 100 and 150 μM ATP; for Inhibition (%): Supplementary Table 1, 200 uM compound, * = colour of the compound interferes with luminescence
Protocol: (§2) To express LsrK with a 6 × His-tag at the C-terminus, the LsrK encoding gene of Salmonella typhimurium was amplified using primers carrying restriction endonuclease sites BamHI and XhoI. The amplified product was cloned into the expression vector pET-28a with a C-terminal 6 × His-tag and transfected into E. coli BL21 (DE3).
This assay was performed as previously described ([Gatta et al., 2019]), and the conditions were optimized. […] 74 purchased compounds were dissolved in dimethyl sulfoxide (20% v/v DMSO in reaction buffer) at a concentration of 2 mM. Briefly, 10 μL DPD, 10 μL LsrK, and 5 μL compound were added to a 96-well plate, and 25 μL ATP or 25 μL reaction buffer was added after 30 min incubation. The plate was incubated for 10 min at 37°C, then 50 μL of kit reagent was added, and the plate was incubated at 37°C for 15 min. The luminescence signal was measured using an Enspire 2300 microplate reader (PerkinElmer). Dose-response tests were carried out to verify the activity of hits chosen by primary screening. (200 μM–6.25 µM) ([Medarametla et al., 2018]). The inhibition percentage of each tested compound was determined as previously described and IC50 was calculated using four logistic parameters.

[3] = test system: AI-2-mediated QS (lsr promoter luminescence, reporter strain WHQ02); assay: Cell-based AI-2-mediated QS interference assay; design: species or system E. coli; details: for AI-2 QS inhibitory activity (in words) / maximum AI-2 QS inhibition: 100 to 3.13 μM; for IC50: Escherichia coli, cell-based QS interference assay, WHQ02, mean ± SD, n = 3
Description: All chemicals were purchased from Sigma-Aldrich (St. Louis, MO, United States) unless otherwise stated. DPD was purchased from the […] ZZBIO Co., LTD. (Shanghai, China). The Kinase-Glo Max Luminescent Kinase Assay Kit was purchased from Promega (Madison, WI, United States). NTA sensor chips were purchased from GE Healthcare (Chicago, IL, United States). All compounds used as potential inhibitors of LsrK were purchased from Topscience Biotechnology Co. Ltd. (Shanghai, China). The QS reporter strain WHQ02 (E. coli BL21 ΔTolC pWHQ01) was donated by Huiqi Wen (Institute of Microbiology and Epidemiology, Academy of Military Sciences, Beijing, China). The plasmid pWHQ01 was constructed by cloning the lsr promoter and the luxCDABE luminescent gene. BamHI and XhoI were purchased from New England Biolabs (Ipswich, MA, United States). pET-28a was purchased from Novagen (Madison, WI, United States). Escherichia coli BL21 (DE3) cells were purchased from TransGen Biotech Co., LTD. (Beijing, China). A Ni-NTA column was purchased from Sangon Biotech (Shanghai, China). Sodium dodecyl sulfate-polyacrylamide gel electrophoresis (SDS-PAGE) and the Bradford Protein Assay Kit were purchased from Thermo Fisher Scientific (Waltham, MA, United States).
as §1

AI-2 QS = details: Figure 2; ref Gatta et al., 2020; cited from earlier work
LsrK [4] = details: Figure 2, cited from earlier work
LsrK [5] = biological target: T1, LsrK; assay: SPR assay; assay type: binding
Description: as §2
His-tagged LsrK was immobilized in the NTA sensor chip (GE Healthcare) in Biacore 8 K using a running buffer consisting of 1 × PBS-T and 5% v/v DMSO. Serially diluted small molecules (concentration range: 50 to 1.56 µM) were injected. Intermediate concentration (12.5 µM) was set as a repeat, and 1 × PBS-T with 5% v/v DMSO was set as the control. The association time was set to 120 s; the dissociation time was set to 130 s; and the flow rate was set to 30 μL/min. The resulting data were fitted to the affinity binding model using Biacore Evaluation Software (GE Healthcare).

T1 sequence (Q8ZKQ6 whole entry): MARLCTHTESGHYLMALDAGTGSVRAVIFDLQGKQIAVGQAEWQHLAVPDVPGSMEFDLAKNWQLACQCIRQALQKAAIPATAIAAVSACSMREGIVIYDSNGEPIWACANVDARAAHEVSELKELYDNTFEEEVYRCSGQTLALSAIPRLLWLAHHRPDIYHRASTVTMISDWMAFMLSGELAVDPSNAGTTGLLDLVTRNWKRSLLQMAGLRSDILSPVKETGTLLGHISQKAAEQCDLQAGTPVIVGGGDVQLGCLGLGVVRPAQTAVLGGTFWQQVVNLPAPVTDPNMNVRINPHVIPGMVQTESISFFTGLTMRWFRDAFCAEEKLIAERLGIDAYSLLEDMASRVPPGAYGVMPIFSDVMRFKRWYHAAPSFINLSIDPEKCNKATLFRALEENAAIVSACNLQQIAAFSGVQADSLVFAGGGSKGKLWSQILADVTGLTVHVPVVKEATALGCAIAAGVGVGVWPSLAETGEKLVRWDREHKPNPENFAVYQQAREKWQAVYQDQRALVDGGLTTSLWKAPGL

Structure (SMILES): C/C(=N/NC(=S)Nc1cccc(C(=O)O)c1)c1ccc(C)cc1 [3284–1358]
- maximum growth inhibition [1]: < 40%
- IC50 (LsrK [2]; 50 μM ATP, read-out: IC50A): 29.9 ± 1.95 µM
- IC50 (LsrK [2]; 100 μM ATP, read-out: IC50B): 41.8 ± 2.57 µM
- IC50 (LsrK [2]; 150 μM ATP, read-out: IC50C): 88.1 ± 3.89 µM
- inhibition at 200 µM (LsrK [2]): 101 ± 3.82%
- type of LsrK inhibition (LsrK [2]): ATP-competitive inhibitors
- AI-2 QS inhibitory activity (in words) [3]: significant QS inhibitory activities
- maximum AI-2 QS inhibition [3]: > 80%
- IC50 [3]: 37.8 ± 3.18 µM

Structure (SMILES): CN(C)C(=O)C1CCCN1Cc1nc2sc(-c3ccccc3)cc2c(=O)[nH]1 (centres unmarked) [Z196022762]
- Inhibition (%) (LsrK [2]; 100 μM ATP): 57.11 ± 2.22%

Structure (SMILES): Cc1[nH]c(C(=O)N/N=C\c2ccc(O)c(O)c2)c(C)c1C(=O)N/N=C\c1ccc(O)c(O)c1 [5617–0915]
- IC50 (LsrK [2]; 100 μM ATP, read-out: IC50B): 79.4 ± 4.55 µM
- inhibition at 200 µM (LsrK [2]): 71.5 ± 4.33%
- IC50 [3]: > 100 µM

Structure (SMILES): O=C(O)C(=O)Nc1nc2ccc(NC(=O)c3cc(Br)c(Br)[nH]3)cc2s1 [compound 3]
- IC50 (AI-2 QS): 0.6 ± 0.1 µM
- IC50 (LsrK [4]; ref Gatta et al., 2020): 18 ± 2 µM

Structure (SMILES): Cc1ccc(Cl)c(Nc2ccccc2C(=O)O)c1Cl [compound 1]
- IC50 (LsrK [4]; ref Medarametla et al., 2018): 178 µM

Structure (SMILES): O=C(O)CC(=O)Nc1ccc2nc(N(Cc3ccccc3)C(=O)c3cc(Br)c(Br)[nH]3)sc2c1 [compound 2]
- IC50 (AI-2 QS): 17 µM
- IC50 (LsrK [4]; ref Gatta et al., 2020): 15 ± 1 µM

Structure (SMILES): Cc1c(O)cc(O)c2c(=O)c(O)c(-c3ccc(O)c(O)c3)oc12 [N025-0038]
- IC50 (LsrK [2]; 50 μM ATP, read-out: IC50A): 26.6 ± 1.22 µM
- IC50 (LsrK [2]; 100 μM ATP, read-out: IC50B): 43.7 ± 4.31 µM
- IC50 (LsrK [2]; 150 μM ATP, read-out: IC50C): 68 ± 1.27 µM
- inhibition at 200 µM (LsrK [2]): 80.5 ± 2.31%
- type of LsrK inhibition (LsrK [2]): ATP-competitive inhibitors
- Kd (LsrK [5]; His-tagged LsrK on NTA chip, 50 to 1.56 µM, affinity binding model): 30.3 µM
- LsrK specific binding (in words) (LsrK [5]; SPR): specifically bound to LsrK; also recorded: exhibited LsrK specific binding
- AI-2 QS inhibitory activity (in words) [3]: significant QS inhibitory activities; also recorded: exhibited AI-2 QS inhibition at sub-minimum inhibitory concentrations; also recorded: exhibited QS inhibition at sub-MIC concentrations
- IC50 [3]: 12.5 ± 0.99 µM

Structure (SMILES): CCOc1ccc(/C=N\NC(=S)Nc2cccc(C(=O)O)c2)cc1O [3284–0335]
- IC50 (LsrK [2]; 100 μM ATP, read-out: IC50B): 84.9 ± 7.73 µM
- inhibition at 200 µM (LsrK [2]): 67.6 ± 4.88%
- IC50 [3]: > 100 µM

Structure (SMILES): O=C(O)CCc1ccc(-c2ccccc2)n1CC(=O)Nc1ccccc1C(F)(F)F [D135-0149]
- maximum growth inhibition [1]: < 40%
- IC50 (LsrK [2]; 50 μM ATP, read-out: IC50A): 21.8 ± 1.48 µM
- IC50 (LsrK [2]; 100 μM ATP, read-out: IC50B): 33.5 ± 2.52 µM
- IC50 (LsrK [2]; 150 μM ATP, read-out: IC50C): 80.1 ± 4.83 µM
- inhibition at 200 µM (LsrK [2]): 83.9 ± 6.33%
- type of LsrK inhibition (LsrK [2]): ATP-competitive inhibitors
- AI-2 QS inhibitory activity (in words) [3]: significant QS inhibitory activities
- maximum AI-2 QS inhibition [3]: > 80%
- IC50 [3]: 22.1 ± 1.66 µM

Structure (SMILES): O=C(NC(Cc1c[nH]c2ccccc12)C(=O)O)c1ccccc1Cl (centres unmarked) [Z85881721]
- Inhibition (%) (LsrK [2]; 100 μM ATP): 10.12 ± 8.78%

Structure (SMILES): O=C(O)CCn1c(=O)[nH]c(=O)c2ccccc21 [Z166653136]
- Inhibition (%) (LsrK [2]; 100 μM ATP): 0%
